Results on one compound are retold here after US11857618B2 (priority 2020, dated 2024).

For the test, the system named is phosphorylation of IRF3 in HeLa cells. It counts as cell-based.

On to `Nc1nc(=O)c2ncn([C@@H]3O[C@@H]4COP(=O)(O)O[C@H]5[C@@H](O)[C@H](n6cnc7c(N)ncnc76)O[C@@H]5COP(=O)(O)O[C@@H]3[C@@H]4O)c2[nH]1` [cGAMP, 2′,3′-cGAMP (cyclic [G(2′,5′)pA(3′,5′)p])], for which the “pIRF3 levels (band normalized to actin) as compared to untreated control” value is “up to 3 fold”.
